In US10583146B2, “Pharmaceutical compositions for glucocorticoid replacement therapy” (Shire ViroPharma Incorporated, priority 2004, dated 2020):

How the values were obtained:
[1] = Equivalent doses of glucocorticoids (hydrocortisone equivalents) for systemic glucocorticoid therapy; settings: per 1 mg of the glucocorticoid
Procedure: The term “hydrocortisone equivalents” is used herein to define the amount in mg of a specific glucocorticoid that corresponds to 1 mg of hydrocortisone for the purpose of systemic glucocorticoid therapy as generally understood by medical practitioners. The term is based on the fact that the individual glucocorticoids have different potencies and in order to achieve a desired therapeutic effect different doses of the individual glucocorticoids are required. Equivalent doses of the glucocorticoids can be calculated based on the following table.

[2] = equivalent dose for systemic glucocorticoid therapy; cited from earlier work
[3] = In vivo plasma cortisol profile in healthy volunteers with suppressed endogenous glucocorticoid secretion; set-up: species or system human
Procedure: The in vivo experiments reported herein were carried out on healthy volunteers. At 6 pm and 11 pm the day before administration of the test composition, the endogenous cortisol secretion was suppressed by oral administration of 2 mg of betamethasone.
The test composition was administered to healthy volunteers. The volunteers were in fasted state and were not allowed to take any food until noon. In the case a tablet is administered, it is ingested together with 200 ml of water. The test composition is administered between 8 am and 10 am on the day following the suppression of endogenous glucocorticoid secretion.
In vivo plasma profiles in humans, N=1 per composition
Dexamethasone suppression test, fasting state, otherwise as described in the paragraph denoted “Method”.
Two films were prepared essentially similar to Example 20—composition A. Film A contains 10 mg of hydrocortisone and film B contains 11.2 mg of hydrocortisone acetate.
The hydrocortisone compositions were tested in two human subjects after labial administration. The subjects had their endogenous glucocorticoid secretion suppressed by synthetic glucocorticoids. The plasma concentration of cortisol was monitored during 360 min after the labial administration, and the serum concentration time profiles from these two different subjects are shown in FIGS. 10 and 11.
The compositions were tested after oral administration to two human subjects (FIG. 12).

Row | time at which the first measured plasma concentration of cortisol was attained ([3]; Example 20 thin-layer film, 10 mg hydrocortisone, labial administration, two human subjects, FIGS. 10 and 11) | rate and extent of mucosal uptake ([3]; Example 20 thin-layer film, labial administration, two human subjects) | SMILES | Hydrocortisone equivalent (1 mg of the glucocorticoid corresponds to the listed amount in mg of hydrocortisone) [1] | Equivalent amount [2] | suitability for immediate release judged from in vivo plasma profiles ([3]; Example 18 thin-layer films, humans, N=1 per composition, fasting state, FIGS. 5-7)
1 |  |  | CC(=O)OCC(=O)[C@@]1(O)CC[C@H]2[C@@H]3CCC4=CC(=O)CC[C@]4(C)[C@H]3C(=O)C[C@@]21C [Cortisone acetate] | 0.8 mg | 25 mg | 
2 | 10 to 15 min | high | C[C@]12CCC(=O)C=C1CC[C@@H]1[C@@H]2[C@@H](O)C[C@@]2(C)[C@H]1CC[C@]2(O)C(=O)CO [Hydrocortisone] | 1 mg | 20 mg | 
3 |  |  | C[C@@H]1C[C@H]2[C@@H]3C[C@H](F)C4=CC(=O)C=C[C@]4(C)[C@H]3[C@@H](O)C[C@]2(C)[C@@]1(O)C(=O)CO [Paramethasone] | 10 mg | 2 mg | 
4 |  |  | C[C@]12C=CC(=O)C=C1CC[C@@H]1[C@@H]2[C@@H](O)C[C@@]2(C)[C@H]1CC[C@]2(O)C(=O)CO [Prednisolone] | 4 mg | 5 mg | 
5 |  |  | C[C@]12C=CC(=O)C=C1CC[C@H]1[C@@H]3C[C@@H](O)[C@](O)(C(=O)CO)[C@@]3(C)C[C@H](O)[C@@]12F [Triamcinolone] | 5 mg | 4 mg | 
6 |  |  | CC(=O)OCC(=O)[C@@]1(O)CC[C@H]2[C@@H]3CCC4=CC(=O)CC[C@]4(C)[C@H]3[C@@H](O)C[C@@]21C [hydrocortisone acetate] |  |  | does not seem to be suitable for an immediate release composition
